# Results from paper PMC3634901 (Bioorganic & medicinal chemistry letters, 2013).
# Entries after “also recorded” stand apart in the source; their conditions may differ.
# Assays:
# [1] = tested on: retinal endothelial cells; test: VEGF/TNF-induced retinal endothelial permeability assay; assay type: cell-based; details: dose response; in words
# Akt activation = details: endothelial cells; cited from earlier work
# Erk activation = details: endothelial cells; cited from earlier work
# AGC kinases = details: panel of 20 AGC kinases; cited from earlier work
# [2] = tested on: aPKC isoforms (PKCζ, PKCι); test: kinase potency against aPKC isoforms; details: without discrimination for PKCζ or PKCι; in words
# [3] = tested on: TNF-induced NFκB activation; assay type: cell-based; details: single dose of 0.1 μM; in words
SMILES,efficacy in preventing TNF/VEGF-induced endothelial permeability [1],potency against aPKC isoforms [2],block of VEGF-induced Akt activation (Akt activation),block of VEGF-induced Erk activation (Erk activation),specificity towards aPKC isoforms versus AGC family members (AGC kinases),inhibition of TNF-induced NFκB activity [3]
COc1ccc(-c2csc(N)c2C(=O)OC(C)C)cc1OC [compound 6],good efficacy,low micromolar to high nanomolar potency,does not block,does not block,high degree of specificity; also recorded: excellent selectivity,–
COc1ccc(-c2csc(N)c2C(=O)OCc2ccccc2)cc1OC [compound 10],–,–,–,–,–,significant inhibition
COc1cccc(COC(=O)c2c(-c3ccc(OC)c(OC)c3)csc2N)c1 [compound 14],–,low micromolar to high nanomolar potency,–,–,–,significant inhibition
CCOC(=O)c1c(-c2ccc3c(c2)OCO3)csc1N [compound 32],good efficacy,low micromolar to high nanomolar potency,–,–,–,significant inhibition

# More lines, main results first:
efficacy in preventing TNF/VEGF-induced endothelial permeability [1],potency against aPKC isoforms [2],SMILES,block of VEGF-induced Akt activation (Akt activation),block of VEGF-induced Erk activation (Erk activation),specificity towards aPKC isoforms versus AGC family members (AGC kinases),inhibition of TNF-induced NFκB activity [3]
good efficacy,–,CCOC(=O)c1c(-c2ccc(N)cc2)csc1N [compound 29],–,–,–,significant inhibition
good efficacy,low micromolar to high nanomolar potency,CCOC(=O)c1c(-c2ccc(N(C)C)cc2)csc1N [compound 30],–,–,–,–
